PMC6598440 (Clinical chemistry, 2016)
Like-named read-outs stand apart in the source and are kept apart here.

Columns and labels:
[1] = cited from earlier work
[2] = Comparison of plasma and whole blood hydroxyurea concentrations; type: in vivo, patients with SCA
[3] = for degradation: whole dried blood on DMPK-C cards and VAMS devices, 4 °C, 30 days

## NC(=O)NO [hydroxyurea, Hydroxyurea]
[1]; children with SCA, measured by colorimetry
  typical peak serum or plasma hydroxyurea concentrations: 15 to 45 µg/mL
[1]
  elimination: primarily by renal clearance
  half-life: 1 to 3 h
[1]; most patients
  time drug is detectable after the daily dose: 6 to 8 h
[1]; oral, once daily
  time of peak serum concentrations after administration: 15 to 60 min
[1]; oral
  oral bioavailability: excellent
[2]; patients with SCA treated with hydroxyurea, venipuncture or finger-prick sampling
  hydroxyurea concentrations in plasma and whole blood compared: comparable
[2]; preliminary data using an HPLC method
  plasma and whole blood hydroxyurea concentrations compared: equivalent
[3]; DMPK-C cards, stored at 4 °C, 0.5 μg/mL, T = 7 days
  % of the target concentration measured in freshly prepared samples: 90.17 ± 0.44%
[3]; DMPK-C cards, stored at 4 °C, 0.5 μg/mL, T = 14 days
  % of the target concentration measured in freshly prepared samples: 81.75 ± 3.85%
[3]; DMPK-C cards, stored at 4 °C, 0.5 μg/mL, T = 30 days
  % of the target concentration measured in freshly prepared samples: 75.85 ± 4.08%
[3]; DMPK-C cards, stored at 4 °C, 60.0 μg/mL, T = 7 days
  % of the target concentration measured in freshly prepared samples: 65.37 ± 1.07%
[3]; DMPK-C cards, stored at 4 °C, 60.0 μg/mL, T = 14 days
  % of the target concentration measured in freshly prepared samples: 54.13 ± 3.39%
[3]; DMPK-C cards, stored at 4 °C, 60.0 μg/mL, T = 30 days
  % of the target concentration measured in freshly prepared samples: 48.58 ± 0.23%
[3]; DMPK-C cards, stored at −20 °C, 0.5 μg/mL, T = 7 days
  % of the target concentration measured in freshly prepared samples: 95.08 ± 0.01%
[3]; DMPK-C cards, stored at −20 °C, 0.5 μg/mL, T = 14 days
  % of the target concentration measured in freshly prepared samples: 90.56 ± 13.29%
[3]; DMPK-C cards, stored at −20 °C, 0.5 μg/mL, T = 30 days
  % of the target concentration measured in freshly prepared samples: 96.07 ± 5.12%
[3]; DMPK-C cards, stored at −20 °C, 60.0 μg/mL, T = 7 days
  % of the target concentration measured in freshly prepared samples: 90.88 ± 1.83%
[3]; DMPK-C cards, stored at −20 °C, 60.0 μg/mL, T = 14 days
  % of the target concentration measured in freshly prepared samples: 92.99 ± 2.03%
[3]; DMPK-C cards, stored at −20 °C, 60.0 μg/mL, T = 30 days
  % of the target concentration measured in freshly prepared samples: 93.07 ± 3.11%
[3]; DMPK-C cards, stored at −80 °C, 0.5 μg/mL, T = 7 days
  % of the target concentration measured in freshly prepared samples: 102.14 ± 0.59%
[3]; DMPK-C cards, stored at −80 °C, 0.5 μg/mL, T = 14 days
  % of the target concentration measured in freshly prepared samples: 97.41 ± 14.36%
[3]; DMPK-C cards, stored at −80 °C, 0.5 μg/mL, T = 30 days
  % of the target concentration measured in freshly prepared samples: 99.98 ± 3.81%
[3]; DMPK-C cards, stored at −80 °C, 60.0 μg/mL, T = 7 days
  % of the target concentration measured in freshly prepared samples: 93.69 ± 3.64%
[3]; DMPK-C cards, stored at −80 °C, 60.0 μg/mL, T = 14 days
  % of the target concentration measured in freshly prepared samples: 94.22 ± 2.34%
[3]; DMPK-C cards, stored at −80 °C, 60.0 μg/mL, T = 30 days
  % of the target concentration measured in freshly prepared samples: 100.45 ± 1.09%
[3]; VAMS devices, stored at 4 °C, 0.5 μg/mL, T = 7 days
  % of the target concentration measured in freshly prepared samples: 87.90 ± 10.32%
[3]; VAMS devices, stored at 4 °C, 0.5 μg/mL, T = 14 days
  % of the target concentration measured in freshly prepared samples: 91.86 ± 7.97%
[3]; VAMS devices, stored at 4 °C, 0.5 μg/mL, T = 30 days
  % of the target concentration measured in freshly prepared samples: 75.11 ± 0.56%
[3]; VAMS devices, stored at 4 °C, 60.0 μg/mL, T = 7 days
  % of the target concentration measured in freshly prepared samples: 64.19 ± 1.28%
[3]; VAMS devices, stored at 4 °C, 60.0 μg/mL, T = 14 days
  % of the target concentration measured in freshly prepared samples: 51.98 ± 0.46%
[3]; VAMS devices, stored at 4 °C, 60.0 μg/mL, T = 30 days
  % of the target concentration measured in freshly prepared samples: 46.14 ± 0.98%
[3]; VAMS devices, stored at −20 °C, 0.5 μg/mL, T = 7 days
  % of the target concentration measured in freshly prepared samples: 106.52 ± 12.11%
[3]; VAMS devices, stored at −20 °C, 0.5 μg/mL, T = 14 days
  % of the target concentration measured in freshly prepared samples: 103.15 ± 2.56%
[3]; VAMS devices, stored at −20 °C, 0.5 μg/mL, T = 30 days
  % of the target concentration measured in freshly prepared samples: 95.37 ± 6.01%
[3]; VAMS devices, stored at −20 °C, 60.0 μg/mL, T = 7 days
  % of the target concentration measured in freshly prepared samples: 83.69 ± 1.28%
[3]; VAMS devices, stored at −20 °C, 60.0 μg/mL, T = 14 days
  % of the target concentration measured in freshly prepared samples: 82.55 ± 1.65%
[3]; VAMS devices, stored at −20 °C, 60.0 μg/mL, T = 30 days
  % of the target concentration measured in freshly prepared samples: 82.48 ± 0.78%
[3]; VAMS devices, stored at −80 °C, 0.5 μg/mL, T = 7 days
  % of the target concentration measured in freshly prepared samples: 101.92 ± 10.34%
[3]; VAMS devices, stored at −80 °C, 0.5 μg/mL, T = 14 days
  % of the target concentration measured in freshly prepared samples: 103.58 ± 3.20%
[3]; VAMS devices, stored at −80 °C, 0.5 μg/mL, T = 30 days
  % of the target concentration measured in freshly prepared samples: 106.00 ± 8.10%
[3]; VAMS devices, stored at −80 °C, 60.0 μg/mL, T = 7 days
  % of the target concentration measured in freshly prepared samples: 86.62 ± 1.86%
[3]; VAMS devices, stored at −80 °C, 60.0 μg/mL, T = 14 days
  % of the target concentration measured in freshly prepared samples: 90.21 ± 0.94%
[3]; VAMS devices, stored at −80 °C, 60.0 μg/mL, T = 30 days
  % of the target concentration measured in freshly prepared samples: 93.53 ± 0.68%
[3]; 0.5 μg/mL
  degradation: 25%
[3]; 60 μg/mL
  degradation: 52%
